According to US11554103B2, “Compositions and methods to reduce pharmaceutical-induced toxicity” (priority 2016, dated 2023):
“Also recorded” adds a separate entry of the source.

How the values were obtained:
[1] = tested on: substantia nigra pars compacta dopaminergic neurons; assay: Ex vivo brain slice mitochondrial oxidant stress, mito-roGFP probe, two photon microscopy; format: cell-based, mouse; conditions: for effect on methamphetamine-induced dendritic mitochondrial stress / effect on methamphetamine-induced axonal (terminal) mitochondrial stress: 10 μM methamphetamine; for effect on methamphetamine-induced dendritic mitochondrial stress / effect on methamphetamine-induced axonal (terminal) mitochondrial stress / effect on levodopa-induced dendritic mitochondrial stress / effect on levodopa-induced axonal (terminal) mitochondrial stress / basal mitochondrial stress, monoamine oxidase inhibitor alone: clorgyline 5 μM; for effect on levodopa-induced dendritic mitochondrial stress / effect on levodopa-induced axonal (terminal) mitochondrial stress: 100 μM levodopa; for basal mitochondrial stress, monoamine oxidase inhibitor alone: dendrites and axons; for effect on methamphetamine- and levodopa-induced mitochondrial stress: slices pre-incubated with the MAO inhibitor
Procedure: (§1) Animals and treatment paradigms: Male C57/B16 and TH-mitoroGFP (Guzman et al., 2010 Nature p. 696; incorporated by reference in its entirety) mice 5-8 wks of age were used for all imaging studies. In addition to the TH-mitoroGFP transgenic line, roGFP was virally delivered into the SNc of C57/B16 mice (either targeting cytosolic or mitochondrial compartments).
Two photon microscopy: Ex vivo slices of the dorsolateral striatum or SNc were prepared and redox status determined as previously described (Guzman et al., 2010 Nature p. 696; incorporated by reference in its entirety). […] The dynamic range of the probe was determined by perfusing 2 mM dithiothreitol (DTT) to fully reduce the probe and 200 μM aldrithiol to fully oxidize the probe; data presented as % relative oxidation.
Stereotaxic surgery: PCR amplified roGFP, mitoroGFP and IMSroGFP inserts were subcloned into pFB-TH-SV40pA vector between EcoR1 and SalI sites. After sequence and expression verification, pFB-TH-roGFP vectors were packaged into rAAVs using serotype 9 with titers 2.1-×10^13 viral genome copies/ml (Virovek). Mice were anesthetized using an isoflurane precision vaporizer (Smiths Medical PM) and placed in a stereotaxic frame (David Kopf Instruments) with a Cunningham adaptor (Harvard Apparatus) to maintain anesthesia delivery throughout surgery. After exposing the skull, a small hole was drilled and 350 nL of AAV9-TH-cytosolic roGFP or AAV9-TH-mitoroGFP delivered via a glass micropipette (Drummond Scientific Company) pulled on a Sutter P-97 puller. The substantia nigra pars compacta (SNc) was targeted at the following coordinates: AP: −3.05, ML: 1.20, and DV −4.30. All surgeries were performed in wild-type mice. Experiments in animals with stereotaxic delivery of AAV viral vectors were performed after at least 10 days post-op.
Ex vivo slice preparation: Mice were terminally anesthetized with a mixture of ketamine (50 mg/kg)/xylazine (4.5 mg/kg) and transcardially perfused with ice cold modified artificial cerebrospinal fluid (aCSF) containing in mM: 124.0 NaCl, 3.0 KCl, 1.0 CaCl2, 2.0 MgCl2, 26 NaHCO3, 1.0 NaH2PO4, and 16.66 glucose. Once perfused the brain was rapidly removed and either saggital or coronal slices containing the dorsolateral striatum (275 μm thick) or the SNc (220 μm thick) sectioned using a vibratome (VT1200S Leica Microsystems). Slices were transferred to a holding chamber containing normal aCSF containing in mM: 124.0 NaCl, 3.0 KCl, 2.0 CaCl2, 1.0 MgCl2, 26 NaHCO3, 1.0 NaH2PO4, and 16.66 glucose and allowed at least 30-40 minutes to recover prior to experiments. All solutions were pH 7.4, 310-320 mOsm and continually bubbled with 95% O2/5% CO2.
Ex vivo redox measurements and two photon microscopy: Oxidant stress was assessed using the redox sensitive roGFP probe targeted either to the cytosol or mitochondrial matrix as previously described.^10 Slices were transferred to a recording chamber and continuously perfused with normal aCSF at 32-34° C. Fluorescence was measured using an Ultima Laser Scanning Microscope system (Bruker) with a DODT contrast detector to provide bright-field transmission images with an Olympus 60/0.9NA lens. A two-photon laser (Chameleon Ultra II, Coherent Inc.) tuned to 920 nm was used to excite roGFP. Time series image acquisitions of the roGFP probe were obtained with 60 frames obtained over ˜20 seconds with 0.195 μm×0.195 μm pixels and 10-12 μsec dwell times. The dynamic range of the probe was determined with 2 mM dithiothreitol, a reducing agent, and 200 μM aldrithiol, an oxidizing agent, which were sequentially perfused and t-series acquired with each to determine the maximal and minimal fluorescence intensity. Test measurements were calculated as relative oxidation. T-series were analyzed offline and fluorescence measurements in multiple regions of interest evaluated with background subtracted.^10 Final data is presented as percent of control (aCSF perfusion).

[2] = tested on: tyrosine hydroxylase positive cells in the SNc; assay: Methamphetamine 14 days plus 14 days withdrawal, stereology of tyrosine hydroxylase positive cells (Example 1); format: in vivo, mouse; conditions: 1 mg/kg rasagiline, 30 min pretreatment; 5 mg/kg methamphetamine 14 days
Procedure: as §1
Stereology: Brains were fixed with 4% paraformaldehyde and serial coronal sections ([…]) were stained for tyrosine hydroxylase. Total number of tyrosine hydroxylase positive cells were counted in the SNc with the optical fractionator method (West et al., 1991 Anat Rec p. 482; Ilijic et al., 2011 Neurobiol Dis p. 364; incorporated by reference in their entireties).

[3] = tested on: substantia nigra pars compacta dopaminergic neurons; assay: Chronic in vivo methamphetamine administration for 28 days, stereology and striatal optical density (Example 2); conditions: 5 mg/kg methamphetamine
Procedure: Immunohistochemistry and stereological analysis: Mice were terminally anesthetized with a mixture of ketamine (50 mg/kg)/xylazine (4.5 mg/kg) and transcardially perfused with 4% paraformaldehyde, post-fixed overnight and cryoprotected in 30% sucrose/phosphate buffered saline (PBS) at 4° C. until use. Serial coronal sections (60 μm thick) were collected throughout the midbrain and striatum. To stain for tyrosine hydroxylase the anti-tyrosine hydroxylase polyclonal antibody (Millipore) 1:2000 followed by goat anti-rabbit IgG biotin conjugated antibody (Millipore) 1:500 with normal goat serum blocking solution was used; after antibody incubation and rinsing with PBS, sections were incubated with ABC Elite Kit (Vector) and processed for diaminobenzidine reaction. Slices were mounted on slides, allowed to dry overnight, dehydrated in ascending alcohol concentrations and mounted with DPX mountant (Sigma). The estimated number of tyrosine hydroxylase positive (TH^+) cells were stereologically counted as previously described.^27 Slices from DAT-Cre X Ai14 mice expressing TdTomato in dopaminergic neurons were mounted on slides, allowed to dry, and mounted with Prolong Gold antifade mountant (Invitrogen). The estimated number of tdTomato expressing cells were stereologically counted. Sampling for stereological quantification was done using an Olympus BX41 microscope with motorized stage (Applied Scientific Instrumentation) and computerized stereology software (Stereologer). The SNc was delineated in each animal in every other section and cells counted using a 40×/0.65NA Olympus lens.
Drug application in ex vivo brain slice or iPSC experiments was performed via perfusion in aCSF.

[4] = tested on: human iPSC-derived dopamine neurons; assay: iPSC redox measurements (roGFP, one photon microscopy); format: cell-based; conditions: for axonal mitochondrial stress in the intermembrane space: 100 μM levodopa vs control, IMS-roGFP
Source text: Human iPSC culture and neural differentiation: The iPSC line was generated from skin fibroblasts of a healthy individual through retroviral expression of OCT4, SOX2, cMYC, KLF4 and previously clinically characterized.^23-25 Differentiation of iPSCs into midbrain dopaminergic neurons was done according to published protocols.^26 To help control neuralization variability, cells were passaged en bloc (size of 1-2 mm) between days 11 and 14, followed by plating onto poly-d-lysine (PDL)/laminin coated 10 cm dishes. Between days 25 and 30, neural blocks were passed by accutase treatment onto PDL/laminin coated culture dishes. Neuralization growth factors were withdrawn at day 40 and neurons were maintained in Neurobasal media (Life Technologies) containing Neurocult SM1 (Stemcell technologies).
iPSC redox measurements and one photon microscopy: Human iPSC-derived dopaminergic neurons were grown on 12 mm glass coverslips and imaged between 75 and 88 days post-differentiation. Two to four days before experimentation, dopaminergic neurons were infected with viral vectors targeting roGFP expression to mitochondrial matrix (AAV9-TH-mitoroGFP), mitochondrial intermembrane space (AAV9-TH-IMSroGFP),^17 or the cytosol (AAV9-TH-cytoroGFP)^7. Cultures were transferred to an imaging chamber mounted on an inverted epifluorescence microscope (Nikon TE300) with a 40×/1.35NA oil-immersion objective. The imaging chamber was superfused with aCSF at a flow rate of 1 ml/min. Imaging experiments were carried out at 31-33° C. Cells were illuminated by Polychrome V (TILL Photonics) and emissions were captured with a cooled CCD camera (Hamamatsu ImagEM) and Slidebook imaging software (Intelligent Imaging Innovations). Regions of interests in the dendrites or axon were selected for image analysis. […] Afterwards, neurons were perfused with 2 mM dithiothreitol for 20 min and then 100 μM aldrithiol for 20 min to obtain full roGFP dynamic range.^7

[5] = tested on: substantia nigra pars compacta dopaminergic neurons; assay: Ex vivo brain slice cytosolic oxidant stress, cyto-roGFP probe, two photon microscopy; format: cell-based, mouse; conditions: bath application of 20 μM menadione
Procedure: as §1
Two photon microscopy: Ex vivo slices of the dorsolateral striatum or SNc were prepared and redox status determined as previously described (Guzman et al., 2010 Nature p. 696; incorporated by reference in its entirety). […] The dynamic range of the probe was determined by perfusing 2 mM dithiothreitol (DTT) to fully reduce the probe and 200 μM aldrithiol to fully oxidize the probe; data presented as % relative oxidation. […]
Ex vivo redox measurements and two photon microscopy: Oxidant stress was assessed using the redox sensitive roGFP probe targeted either to the cytosol or mitochondrial matrix as previously described.^10 Slices were transferred to a recording chamber and continuously perfused with normal aCSF at 32-34° C. Fluorescence was measured using an Ultima Laser Scanning Microscope system (Bruker) with a DODT contrast detector to provide bright-field transmission images with an Olympus 60/0.9NA lens. […] Test measurements were calculated as relative oxidation. […]

[6] = rasagiline 10 μM, listed as rasagaline
[7] = 1 mg/kg rasagiline pretreatment

COC(=O)C1=C(C)NC(C)=C([N+](=O)[O-])C1c1ccccc1C(F)(F)F (stereo not shown) [Bay K 8644]
axonal (terminal) mitochondrial stress ([1]; 10 μM drug alone, relative to control (aCSF), dorsolateral striatum slices): increased axonal mitochondrial stress

[Cl-].[K+] [KCl]
axonal mitochondrial stress ([1]; 15 mM KCl alone): not significantly altered
axonal mitochondrial stress ([1]; 30 mM KCl perfusion): increased axonal mitochondrial stress

C#CCN[C@@H]1CCc2ccccc21 [rasagiline]
effect on methamphetamine-induced loss of TH+ cells [2]: prevented meth-induced loss of TH+ cells
effect on d-amphetamine-induced axonal mitochondrial stress ([1]; 10 μM d-amphetamine, rasagiline 10 μM): prevented
effect on methamphetamine-induced dendritic mitochondrial stress ([1]; rasagiline 10 μM): prevented
effect on methamphetamine-induced axonal (terminal) mitochondrial stress ([1]; rasagiline 10 μM): attenuated
effect on methamphetamine-induced axonal (terminal) mitochondrial stress [1, 6]: prevented
effect on levodopa-induced dendritic mitochondrial stress ([1]; rasagiline 10 μM): prevented
effect on levodopa-induced axonal (terminal) mitochondrial stress ([1]; rasagiline 10 μM): attenuated
effect on levodopa-induced axonal (terminal) mitochondrial stress [1, 6]: prevented
basal mitochondrial stress, monoamine oxidase inhibitor alone ([1]; rasagiline 10 μM): Neither rasagiline nor clorgyline had any effect on basal mitochondrial oxidant stress; also recorded: had no effect on mitochondrial stress
effect on methamphetamine- and levodopa-induced mitochondrial stress [1]: attenuated
effect on methamphetamine-induced loss of SNc neurons, Dat-Cre X Ai14 mice ([3]; 1 mg/kg rasagiline 30 min pretreatment): significantly reduced degeneration in both the striatum and SNc; also recorded: prevented
effect on methamphetamine-induced loss of SNc axons in the striatum [3, 7]: significantly reduced degeneration in both the striatum and SNc; also recorded: prevented
effect on methamphetamine-induced loss of TH+ neurons [3, 7]: prevented

N[C@@H](Cc1ccc(O)c(O)c1)C(=O)O [levodopa, L-3,4-dihydroxyphenylalanine]
axonal mitochondrial stress (mitochondrial matrix roGFP) ([4]; 100 μM levodopa vs basal): increased axonal mitochondrial stress
dendritic mitochondrial stress (mitochondrial matrix roGFP) ([4]; 100 μM levodopa vs basal): increased
axonal mitochondrial stress in the intermembrane space [4]: increased axonal mitochondrial stress in the intermembrane space
axonal mitochondrial stress in the intermembrane space ([4]; listed as Levodopa): robustly increased oxidant stress within the intermembrane space
mitochondrial matrix oxidant stress in human dopaminergic neurons ([4]; levodopa): increased mitochondrial matrix oxidant stress in human dopaminergic neurons in a MAO-dependent manner

CC1=CC(=O)c2ccccc2C1=O [menadione]
cyto-roGFP oxidation state [5]: > 200 % above baseline

C#CCN(C)CCCOc1ccc(Cl)cc1Cl [clorgyline]
effect on methamphetamine-induced dendritic mitochondrial stress ([1]; rasagiline 10 μM): prevented
effect on methamphetamine-induced axonal (terminal) mitochondrial stress ([1]; rasagiline 10 μM): attenuated; also recorded: prevented rises in mitochondrial stress
effect on levodopa-induced dendritic mitochondrial stress ([1]; rasagiline 10 μM): prevented
effect on levodopa-induced axonal (terminal) mitochondrial stress ([1]; rasagiline 10 μM): attenuated; also recorded: prevented rises in mitochondrial stress
basal mitochondrial stress, monoamine oxidase inhibitor alone ([1]; rasagiline 10 μM): Neither rasagiline nor clorgyline had any effect on basal mitochondrial oxidant stress; also recorded: had no effect on mitochondrial stress
effect on methamphetamine- and levodopa-induced mitochondrial stress [1]: attenuated; also recorded: diminished the mitochondrial redox effects of methamphetamine and levodopa
